Reference: US6426355B1, “Heterocyclic carboxamide-containing thiourea inhibitors of herpes viruses containing phenylenediamine group” (American Home Products, priority 1998, dated 2002)
Converted amounts (≈) assume the structure as drawn.

Columns and labels:
[1] = system: HCMV recombinant mutant virus (RV145); experiment: HCMV microtiter plate assay (beta-glucuronidase reporter); format: cell-based, Human Cytomegalovirus; conditions: for IC50 (ug/ml) HCMV: HCMV in human foreskin fibroblasts
Text: Ninety-six well plate cultures of human foreskin fibroblasts are infected in the presence of inhibitor compound with a HCMV recombinant mutant virus whose genome contains the prokaryotic beta-glucuronidase gene (Jefferson, R. A., S. M. Burgess, and D. Hirsh. 1986. Beta-glucuronidase from Escherichia coli as a gene fusion marker. Proc. Natl. Acad. Sci. USA 83:8447-8451) whose expression is controlled by a viral promoter. An example of such a virus is RV145 (Jones, T. R., V. P. Muzithras, and Y. Gluzman. 1991. Replacement mutagenesis of the human cytomegalovirus genome: US10 and US11 gene products are nonessential. J. Virol. 65:5860-5872). Since it is under the control of a viral promoter, beta-glucuronidase expression is an indirect indicator of growth and replication of HCMV in this assay. At 96 hours post-infection, the infected cell lysates are prepared (using 50 mM sodium phosphate [pH7.0] containing 0.1% Triton X-100 and 0.1% sarkosyl) and assayed for beta-glucuronidase activity using a substrate for the enzyme which when cleaved yields either a product which can be measured colorimetrically in a spectrophotometer or fluorescently in a microfluorimeter. Examples of such substrates are p-nitrophenyl-beta-D-glucuronide and methylumbelliferylglucuronide, respectively. The presence of an antiviral compound is indicated by the reduced expression of the HCMV genome resident beta-glucuronidase gene, compared to the absence of inhibitor. […] Data from this assay generated using varying amounts of inhibitor compound is also used to estimate the IC50 of an inhibitor compound.

[2] = system: VZV strain Ellen; experiment: VZV Antiviral (ELISA) assay; format: cell-based; conditions: for IC50 (ug/ml) VZV: VZV strain Ellen in HFF cells
Description: For the generation of stock VZV to be used in the assay, VZV strain Ellen (ATCC #VR-1367) is used to infect human foreskin fibroblast (HFF) cells at low multiplicity (less than 0.1) and incubated overnight at 37° C. in 5% CO2. After the overnight incubation, the mixture of uninfected and VZV-infected HFF infected cells are then harvested and added to each well of 96-well plates (3.5×10^4 cells in 100 μl DMEM supplemented with 2% FBS) which contain test compound or the reference standard drug control (in 100 μl DMEM supplemented with 2% FBS per well). These cells are incubated for three days at 37° C. in 5% CO2, then fixed for ELISA assay. The primary antibody is murine anti-VZV glycoprotein II monoclonal antibody (Applied Biosystems, Inc. #13-145-100) and the secondary antibody is goat anti-mouse IgG linked to β-galactosidase. Thus the extent of viral replication is determined by assessing β-galactosidase activity by quantifying the generation of the 4-methyl umbelliferone fluorescent cleavage product after addition of the methyl umbelliferyl-β-D-galactoside (Sigma #M1633) substrate on a microfluorimeter (365 nm for excitation and 450 nm for emission). Antiviral activity (IC50) of the test compound is determined by comparing the flourescence obtained in absence of compound to that obtained in the presence of compound.

| Compound | IC50 ([1]; Human betaherpesvirus 5, Fibroblast, read-out: IC50 (ug/ml) HCMV) [µg/mL] | inhibition at 10 µg/mL ([2]; Human alphaherpesvirus 3, read-out: % inhibition 10 ug/ml VZV, at 10 ug/ml, VZV strain Ellen in HFF cells) [%] | IC50 (ug/ml) HCMV [1] [µg/mL] | IC50 (ug/ml) VZV [2] [µg/mL] |
| --- | --- | --- | --- | --- |
| CC(=O)Nc1ccc(NC(=S)Nc2ccc(-c3ccno3)c(Cl)c2)cc1 [Example 974, N-{4-[3-(3-Chloro-4-isoxazol-5-yl-phenyl)-thioureido]-phenyl} -acetamide] | 0.011 (≈ 28.4 nM) | 14 |  |  |
| CC(NC(=S)Nc1ccc(NC(=O)c2cscn2)cc1)c1ccc(C(F)(F)F)c(F)c1 (stereo not drawn) [Example 849] |  |  | 0.002 (≈ 4.27 nM) | 1.82 (≈ 3880 nM) |
| CC(NC(=S)Nc1ccc(NC(=O)c2csnn2)cc1)c1ccc(F)c(C(F)(F)F)c1 (stereo not drawn) [Example 828] |  |  | 0.002 (≈ 4.26 nM) | >7.5 |
| O=C(Nc1ccc(NC(=S)NCCc2ccccc2)cc1)c1csnn1 [Example 575] |  |  | 0.017 (≈ 44.3 nM) | 2 (≈ 5220 nM) |
| CN1CCN(c2ccc(CNC(=S)Nc3ccc(NC(=O)c4csnn4)cc3)cc2C(F)(F)F)CC1 [Example 617] |  |  | 0.013 (≈ 24.3 nM) | >10 |
| O=C(Nc1ccc(NC(=S)NCCc2ccccc2)cc1)c1ccco1 [Example 574] |  |  | 0.089 (≈ 244 nM) | >10 |
| CCCC(NC(=S)Nc1ccc(NC(=O)c2csnn2)cc1)c1cc(C(F)(F)F)cc(C(F)(F)F)c1 (stereo not drawn) [Example 858] |  |  | 0.0007 (≈ 1.28 nM) | >7.5 |
| C[C@@H](NC(=S)Nc1ccc(NC(=O)c2csnn2)cc1)c1ccc(Br)cc1 [Example 816] |  |  | 0.0053 (≈ 11.5 nM) | >7.5 |
| CC(NC(=S)Nc1ccc(NC(=O)c2c[nH]cn2)cc1)c1ccc(F)cc1 (stereo not drawn) [Example 863] |  |  | 2.0 (≈ 5220 nM) | >7.5 |
| CC(NC(=S)Nc1ccc(NC(=O)c2cscn2)cc1)c1ccc(Cl)c(C(F)(F)F)c1 (stereo not drawn) [Example 850] |  |  | 0.0008 (≈ 1.65 nM) | 2.33 (≈ 4800 nM) |
| CC(NC(=S)Nc1ccc(NC(=O)c2cscn2)cc1)c1ccc(Br)cc1 (stereo not drawn) [Example 824] |  |  | 0.014 (≈ 30.3 nM) | 0.17 (≈ 368 nM) |
| O=C(Nc1ccc(NC(=S)NCc2cc(Cl)cc(Cl)c2)cc1)c1csnn1 [Example 584] |  |  | 0.0026 (≈ 5.93 nM) | >10 |
| O=C(Nc1ccc(NC(=S)NCCc2cc(C(F)(F)F)cc(C(F)(F)F)c2)cc1)c1ccco1 [Example 614] |  |  | 0.024 (≈ 47.9 nM) | 7 (≈ 14000 nM) |
| COc1ccc(CCNC(=S)Nc2ccc(NC(=O)c3ccco3)cc2)cc1OC [Example 611] |  |  | 0.5 (≈ 1180 nM) | >10 |
| CCCCC(NC(=S)Nc1ccc(NC(=O)c2csnn2)cc1)c1cc(C(F)(F)F)cc(C(F)(F)F)c1 (stereo not drawn) [Example 859] |  |  | 0.00001 (≈ 0.0178 nM) | 0.5 (≈ 890 nM) |
| CC(NC(=S)Nc1ccc(NC(=O)c2cscn2)cc1)c1ccc(F)c(C(F)(F)F)c1 (stereo not drawn) [Example 838] |  |  | 0.0007 (≈ 1.49 nM) | >7.5 |
| O=C(Nc1ccc(NC(=S)NCc2ccc(F)c(C(F)(F)F)c2)cc1)c1csnn1 [Example 624] |  |  | 0.002 (≈ 4.39 nM) | >10 |
| O=C(Nc1ccc(NC(=S)Nc2ccc(I)c(C(F)(F)F)c2)cc1)c1csnn1 [Example 615] |  |  | 0.005 (≈ 9.1 nM) | >10 |
| O=C(Nc1ccc(NC(=S)NC(c2ccccc2)c2cc(C(F)(F)F)cc(C(F)(F)F)c2)cc1)c1csnn1 (stereo not drawn) [Example 860] |  |  | 0.001 (≈ 1.72 nM) | >7.5 |
| C[C@@H](NC(=S)Nc1ccc(NC(=O)c2csnn2)cc1)c1ccc(Cl)cc1 [Example 821] |  |  | 0.005 (≈ 12 nM) | >7.5 |
| Cc1ccc(C(C)NC(=S)Nc2ccc(NC(=O)c3cscn3)cc2)c(C)c1 (stereo not drawn) [Example 834] |  |  | 0.002 (≈ 4.87 nM) | >7.5 |
